Laboratory results published in ChEMBL document CHEMBL4651402, “Screening of ~5500 FDA-approved drugs and clinical candidates for anti-SARS-CoV-2 activity” (2021).

System: SARS-CoV-2
Test: microbe, parasite or virus in culture
Conditions: Severe acute respiratory syndrome coronavirus 2, Vero C1008, 48 h

| SMILES | IC50 | IC50 (read-out: pIC50 (converted)) |
| --- | --- | --- |
| O=C(O[C@@H]1Cc2c(O)cc(O)cc2O[C@@H]1c1cc(O)c(=O)c2c(O)c(O)cc([C@H]3Oc4cc(O)cc(O)c4C[C@H]3OC(=O)c3cc(O)c(O)c(O)c3)c2c1)c1cc(O)c(O)c(O)c1 [THEAFLAVIN DIGALLATE] | > 20 µM | > 20 µM |
| CO/N=C(\C(=O)N[C@@H]1C(=O)N2C(C(=O)O)=C(CSc3nc(=O)c(O)nn3C)CS[C@H]12)c1csc(N)n1 [CEFTRIAXONE] | > 20 µM | > 20 µM |
| COc1ccc(C(=O)Cc2c(CCN(C)C)cc3c(c2OC)OCO3)c(C(=O)O)c1OC [NARCEINE] | > 20 µM | > 20 µM |
| CC1=C(CC(=O)O)c2cc(F)ccc2/C1=C\c1ccc(S(C)(=O)=O)cc1 [EXISULIND] | > 20 µM | > 20 µM |
| N[C@H]1C(O)O[C@H](CO)[C@@H](O)[C@@H]1O (some centres undefined) [GLUCOSAMINE] | > 20 µM | > 20 µM |
| CN(C)[C@@H](c1cccc(O)c1)[C@H]1CCCC[C@H]1O [CIRAMADOL] | > 20 µM | > 20 µM |
| C=C1CC2C3C=C(C)C4=CC(=O)CCC4(C)C3CCC2(C)C1(OC(C)=O)C(C)=O (centres undefined) | > 20 µM | > 20 µM |
| COc1ccccc1Oc1c(NS(=O)(=O)c2ccc(C(C)(C)C)cc2)nc(-c2ncccn2)nc1OCCO [BOSENTAN] | > 20 µM | > 20 µM |
| CO[C@@]12[C@H](COC(N)=O)C3=C(C(=O)C(C)=C(N)C3=O)N1C[C@@H]1N[C@@H]12 [MITOMYCIN] | > 20 µM | > 20 µM |
| N=C(N)N [GUANIDINE] | > 20 µM | > 20 µM |
| O=C(Oc1ccc(Br)cc1)N1CCN2CCC1CC2 [SSR180711] | > 20 µM | > 20 µM |
| CCN(c1ccccc1)c1cc(NC)[n+](C)c(C)n1 | > 20 µM | > 20 µM |
| CC(C)(CO)CCCCCCC(C)(C)CO [GEMCADIOL] | > 20 µM | > 20 µM |
| O=C(CCCN1CCC(O)(c2cccc(C(F)(F)F)c2)CC1)c1ccc(F)cc1 [TRIFLUPERIDOL] | > 20 µM | > 20 µM |
| O=C(O)c1cccc(-c2cccc(NCCNC[C@H](O)c3cccc(Cl)c3)c2)c1 [SOLABEGRON] | > 20 µM | > 20 µM |
| CCCCCCCCCCCC[N+](C)(C)CC(=O)O | > 20 µM | > 20 µM |
| COc1ccc(CCNCC(O)COc2cccc(C)c2)cc1OC (centres undefined) [BEVANTOLOL] | > 20 µM | > 20 µM |
| CCn1cc(C(=O)O)c(=O)c2cnc(N3CCCC3)nc21 [PIROMIDIC ACID] | > 20 µM | > 20 µM |
| CC(C)(C)NC[C@H](O)COc1cccc2c1CCCC2=O [LEVOBUNOLOL] | > 20 µM | > 20 µM |
| c1cnc2cc3c(cc2n1)[C@@H]1CNC[C@H]3C1 [VARENICLINE] | > 20 µM | > 20 µM |
| Oc1cccc(O)c1 [RESORCINOL] | > 20 µM | > 20 µM |

| SMILES | IC50 | IC50 (read-out: pIC50 (converted)) |
| --- | --- | --- |
| Cc1ccc2c(-c3ccc(F)cc3)nc(=O)n(C(C)C)c2c1 [FLUPROQUAZONE] | > 20 µM | > 20 µM |
| [2H]C1([2H])COc2ccc(Cc3cc([C@@H]4O[C@H](CO)[C@@H](O)[C@H](O)[C@H]4O)ccc3CC)cc2O1 | > 20 µM | > 20 µM |
| C=CCC1(C(C)C)C(=O)NC(=O)NC1=O [APROBARBITAL] | > 20 µM | > 20 µM |
| Cc1nccnc1N1CCCCC1 [MODALINE] | > 20 µM | > 20 µM |
| Cc1cc(C)c2c3ccccc3n(Cc3ccc([C@@H](C(=O)N[C@@H](CO)c4ccccc4)C4CCCC4)cc3)c2n1 | > 20 µM | > 20 µM |
| NC(=O)Cc1cccc(C(=O)c2ccccc2)c1N | > 20 µM | > 20 µM |
| CC(C)NCC(O)COc1ccc(COCCOC(C)C)cc1 (centres undefined) [BISOPROLOL] | > 20 µM | > 20 µM |
| C[C@H]1C(O)O[C@@H]2O[C@@]3(C)CC[C@H]4[C@H](C)CCC1[C@@]24OO3 (some centres undefined) | > 20 µM | > 20 µM |
| CNCCc1cnc[nH]1 | > 20 µM | > 20 µM |
| CC(=O)Oc1cccc2c1C(=O)c1c(OC(C)=O)cc(C(=O)O)cc1C2=O [DIACEREIN] | > 20 µM | > 20 µM |
| O=C(C[n+]1ccn(CC(OCc2ccc(Cl)cc2Cl)c2ccc(Cl)cc2Cl)c1)c1ccc(F)cc1 (centres undefined) [FLUDAZONIUM] | > 20 µM | > 20 µM |
| Cn1c(N2CCCCS2(=O)=O)nc(C(=O)NCc2ccc(F)cc2)c(O)c1=O [BMS-707035] | > 20 µM | > 20 µM |
| c1ccc2c(c1)CCCc1cc(NCCN3CCOCC3)nnc1-2 | > 20 µM | > 20 µM |
| CCOc1ncc(S(=O)(=O)N2CCN(CC)CC2)cc1-c1nc2c(CC)n(CCOC)nc2c(=O)[nH]1 | > 20 µM | > 20 µM |
| Cc1nnc(SCC2=C(C(=O)O)N3C(=O)[C@@H](NC(=O)Cn4cnnn4)[C@H]3SC2)s1 [CEFAZOLIN] | > 20 µM | > 20 µM |
| C[C@@H]1O[C@@H](O[C@@H]2C=C3CCC4C(CC[C@]5(C)[C@@H](c6ccc(=O)oc6)CC[C@]45O)[C@@]3(C)CC2)[C@H](O)[C@H](O)[C@H]1O (some centres undefined) | > 20 µM | > 20 µM |
| CCCCCCOC(=O)NC(=N)c1ccc(NCc2nc3cc(C(=O)N(CCC(=O)OCC)c4ccccn4)ccc3n2C)cc1 [DABIGATRAN ETEXILATE] | > 20 µM | > 20 µM |
| CN1C(=O)C(O)N=C(c2ccccc2)c2cc(Cl)ccc21 (centres undefined) [TEMAZEPAM] | > 20 µM | > 20 µM |
| O=c1[nH]c(=O)n([C@H]2C[C@H](O)[C@@H](CO)O2)cc1F [FLOXURIDINE] | > 20 µM | > 20 µM |
| COc1ccc(NS(=O)(=O)c2ccc(N)cc2)nn1 [SULFAMETHOXYPYRIDAZINE] | > 20 µM | > 20 µM |
| Oc1noc2c1CCNC2 [GABOXADOL] | > 20 µM | > 20 µM |

| SMILES | IC50 | IC50 (read-out: pIC50 (converted)) |
| --- | --- | --- |
| C[N+]1(C)CCOC(O)(c2ccc(-c3ccc(C4(O)C[N+](C)(C)CCO4)cc3)cc2)C1 (centres undefined) [HEMICHOLINIUM-3] | > 20 µM | > 20 µM |
| CC(C(=O)O)c1ccc2c(c1)Cc1ccccc1-2 (centres undefined) [CICLOPROFEN] | > 20 µM | > 20 µM |
| O=C1CC2(CCCC2)CC(=O)N1CCCCN1CCN(c2ncccn2)CC1 [BUSPIRONE] | > 20 µM | > 20 µM |
| O=C(c1ccccc1)c1ccc2n1CCC2C(=O)O (centres undefined) [KETOROLAC] | > 20 µM | > 20 µM |
| COc1cc(C(=O)Nc2ccccc2CCC2CCCCN2C)ccc1O (centres undefined) [MODECAINIDE] | > 20 µM | > 20 µM |
| c1ccc2sc(SSc3nc4ccccc4s3)nc2c1 [BENZOTHIAZYL DISULFIDE] | > 20 µM | > 20 µM |
| CC1(COc2ccc(CC3SC(=O)NC3=O)cc2)CCCCC1 (centres undefined) [CIGLITAZONE] | > 20 µM | > 20 µM |
| COc1cccc([C@H]2O[C@H](CC(=O)N3CCC(CC(=O)O)CC3)C(=O)N(CC(C)(C)COC(C)=O)c3ccc(Cl)cc32)c1OC [LAPAQUISTAT ACETATE] | > 20 µM | > 20 µM |
| CC(C)(C)NCC(O)COc1cccc2c1CCC(=O)N2 (centres undefined) [CARTEOLOL] | > 20 µM | > 20 µM |
| N=C(N)NN [PIMAGEDINE] | > 20 µM | > 20 µM |
| Cc1cccc(N(C)C(=S)Oc2ccc3ccccc3c2)c1 [TOLNAFTATE] | > 20 µM | > 20 µM |
| Cc1cnc(NC(=O)C2=C(O)c3ccccc3S(=O)(=O)N2C)s1 [MELOXICAM] | > 20 µM | > 20 µM |
| Cc1nc2ccccn2c(=O)c1CCN1CCC(Nc2nc3cccnc3n2Cc2ccco2)CC1 [BARMASTINE] | > 20 µM | > 20 µM |
| COC(=O)CCC(C)C1CCC2C3C(C[C@H](O)[C@]12C)[C@@]1(C)CC[C@@H](O)C[C@H]1C[C@H]3O (some centres undefined) | > 20 µM | > 20 µM |
| CNS(=O)(=O)Cc1ccc2[nH]cc(CCN(C)C)c2c1 | > 20 µM | > 20 µM |
| Cc1cc(Nc2ccc(S(F)(F)(F)(F)F)cc2)n2nc(C(C)(F)F)nc2n1 [DSM-265] | > 20 µM | > 20 µM |
| O=C(O)c1ccccc1O [SALICYLIC ACID] | > 20 µM | > 20 µM |
| CC(=O)OC1C[C@@]2(C)[C@@H](C[C@@H](O)C3[C@]2(C)CC[C@H]2[C@H](C)[C@H](O)CC[C@]32C)/C1=C(\CCC=C(C)C)C(=O)O (some centres undefined) | > 20 µM | > 20 µM |
| CC[C@H](CO)Nc1nc(NCc2ccccc2)c2ncn(C(C)C)c2n1 [SELICICLIB] | > 20 µM | > 20 µM |
| O=C(O)CCCC/C=C(/c1ccccc1)c1cccnc1 [ISBOGREL] | > 20 µM | > 20 µM |
